Reference: ChEMBL document CHEMBL3885881, “DrugMatrix”

Species on record: Rattus norvegicus
Experiment: DrugMatrix - Regimen: Daily Repeat
Assay type: toxicity, organism-based, Sprague-Dawley
Design: regimen Daily Repeat, gender Male, age 6-8 weeks
Details: in vivo, po, route oral GAVAGE, vehicle .5 % CMC; for ABSOLUTE BASOPHIL / ABSOLUTE EOSINOPHIL / ABSOLUTE LYMPHOCYTE / ABSOLUTE MONOCYTE / ABSOLUTE SEGMENTED NEUTROPHIL / BASOPHIL / EOSINOPHIL / ERYTHROCYTE COUNT / HEMATOCRIT / HEMOGLOBIN / LEUKOCYTE COUNT / LYMPHOCYTE / MEAN CORPUSCULAR HEMOGLOBIN / MEAN CORPUSCULAR HEMOGLOBIN CONCENTRATION / MEAN CORPUSCULAR VOLUME / MONOCYTE / NEUTROPHIL / NUCLEATED RED BLOOD CELLS / PLATELET COUNT: tissue Blood; for ALANINE AMINOTRANSFERASE / ALBUMIN / ALKALINE PHOSPHATASE / ASPARTATE AMINOTRANSFERASE / BLOOD UREA NITROGEN / CARBON DIOXIDE / CHLORIDE / CHOLESTEROL / CREATINE PHOSPHOKINASE / CREATININE / GLUCOSE / LACTATE DEHYDROGENASE / LIPASE / PHOSPHORUS / POTASSIUM / SODIUM / TOTAL BILIRUBIN / TOTAL PROTEIN / URIC ACID: tissue Plasma
[1] = 0 mg/kg, 72 h, dose level Control, time 3 day
[2] = 0 mg/kg, 120 h, dose level Control, time 5 day
[3] = 50 mg/kg, 72 h, dose level Low, time 3 day

With `CN(C)[C@@H]1C(O)=C(C(N)=O)C(=O)[C@@]2(O)C(O)=C3C(=O)c4c(O)ccc(Cl)c4[C@@](C)(O)[C@H]3C[C@@H]12` [CHLORTETRACYCLINE] the “ABSOLUTE BASOPHIL” value [1] was 0 CELLS/uL, the “ABSOLUTE EOSINOPHIL” value [1] was 32.5 CELLS/uL and the “ABSOLUTE LYMPHOCYTE” value [1] was 13494.17 CELLS/uL. The “ABSOLUTE MONOCYTE” value [1] was 474 CELLS/uL, the “ABSOLUTE SEGMENTED NEUTROPHIL” value [1] was 1932.67 CELLS/uL and the BASOPHIL [1] was 0%. For the same compound, the EOSINOPHIL [1] was 0.17%, the “ERYTHROCYTE COUNT” value [1] was 5.45 x10E6/uL and the HEMATOCRIT [1] was 34.32%. The HEMOGLOBIN [1] was 13.82 G/DL, the “LEUKOCYTE COUNT” value [1] was 15.93 x10E3/uL and the LYMPHOCYTE [1] was 84.83%. For the same compound, the “MEAN CORPUSCULAR HEMOGLOBIN” value [1] was 25.38 pg, the “MEAN CORPUSCULAR HEMOGLOBIN CONCENTRATION” value [1] was 40.27 G/DL and the “MEAN CORPUSCULAR VOLUME” value [1] was 63.05 fL. For the same compound, the MONOCYTE [1] was 3%, the NEUTROPHIL [1] was 12% and the “NUCLEATED RED BLOOD CELLS” value [1] was 0.67 /100WBC. For the same compound, the “PLATELET COUNT” value [1] was 1188.5 x10E3/uL, the “ALANINE AMINOTRANSFERASE” value [1] was 54.83 u/L and the ALBUMIN [1] was 4.22 G/DL. For the same compound, the “ALKALINE PHOSPHATASE” value [1] was 427.67 u/L, the “ASPARTATE AMINOTRANSFERASE” value [1] was 86.5 u/L and the “BLOOD UREA NITROGEN” value [1] was 15.33 mg/dL. For the same compound, the “CARBON DIOXIDE” value [1] was 24.83 mmol/L, the CHLORIDE [1] was 102.33 MEQ/L and the CHOLESTEROL [1] was 71.67 mg/dL. The “CREATINE PHOSPHOKINASE” value [1] was 442.5 u/L, the CREATININE [1] was 0.19 mg/dL and the GLUCOSE [1] was 160.67 mg/dL. For the same compound, the “LACTATE DEHYDROGENASE” value [1] was 236.5 u/L, the LIPASE [1] was 9 u/L and the PHOSPHORUS [1] was 11.97 mg/dL. The POTASSIUM [1] was 6.2 MEQ/L, the SODIUM [1] was 142.85 MEQ/L and the “TOTAL BILIRUBIN” value [1] was 0.2 mg/dL. For the same compound, the “TOTAL PROTEIN” value [1] was 5.8 G/DL, the “URIC ACID” value [1] was 1.3 mg/dL and the “ABSOLUTE BASOPHIL” value [2] was 0 CELLS/uL. For the same compound, the “ABSOLUTE EOSINOPHIL” value [2] was 114.5 CELLS/uL, the “ABSOLUTE LYMPHOCYTE” value [2] was 14614 CELLS/uL and the “ABSOLUTE MONOCYTE” value [2] was 173 CELLS/uL. For the same compound, the “ABSOLUTE SEGMENTED NEUTROPHIL” value [2] was 1048.5 CELLS/uL, the BASOPHIL [2] was 0% and the EOSINOPHIL [2] was 0.67%. For the same compound, the “ERYTHROCYTE COUNT” value [2] was 5.66 x10E6/uL, the HEMATOCRIT [2] was 35.52% and the HEMOGLOBIN [2] was 14.27 G/DL. The “LEUKOCYTE COUNT” value [2] was 15.95 x10E3/uL, the LYMPHOCYTE [2] was 91.33% and the “MEAN CORPUSCULAR HEMOGLOBIN” value [2] was 25.23 pg. The “MEAN CORPUSCULAR HEMOGLOBIN CONCENTRATION” value [2] was 40.2 G/DL, the “MEAN CORPUSCULAR VOLUME” value [2] was 62.7 fL and the MONOCYTE [2] was 1.17%. For the same compound, the NEUTROPHIL [2] was 6.83%, the “NUCLEATED RED BLOOD CELLS” value [2] was 0.33 /100WBC and the “PLATELET COUNT” value [2] was 1229 x10E3/uL. For the same compound, the “ALANINE AMINOTRANSFERASE” value [2] was 58.67 u/L, the ALBUMIN [2] was 4.32 G/DL and the “ALKALINE PHOSPHATASE” value [2] was 382.5 u/L. For the same compound, the “ASPARTATE AMINOTRANSFERASE” value [2] was 81.67 u/L, the “BLOOD UREA NITROGEN” value [2] was 17.67 mg/dL and the “CARBON DIOXIDE” value [2] was 27.17 mmol/L. The CHLORIDE [2] was 102.33 MEQ/L, the CHOLESTEROL [2] was 63.67 mg/dL and the “CREATINE PHOSPHOKINASE” value [2] was 227.67 u/L. For the same compound, the CREATININE [2] was 0.23 mg/dL, the GLUCOSE [2] was 155.33 mg/dL and the “LACTATE DEHYDROGENASE” value [2] was 146.5 u/L. It also gave an LIPASE [2] of 10.67 u/L, a PHOSPHORUS [2] of 11.93 mg/dL and a POTASSIUM [2] of 6.85 MEQ/L. For the same compound, the SODIUM [2] was 143.95 MEQ/L, the “TOTAL BILIRUBIN” value [2] was 0.18 mg/dL and the “TOTAL PROTEIN” value [2] was 6.02 G/DL. The “URIC ACID” value [2] was 1.63 mg/dL, the “ABSOLUTE BASOPHIL” value [3] was 0 CELLS/uL and the “ABSOLUTE EOSINOPHIL” value [3] was 126.67 CELLS/uL. The “ABSOLUTE LYMPHOCYTE” value [3] was 10511.33 CELLS/uL, the “ABSOLUTE MONOCYTE” value [3] was 344.33 CELLS/uL and the “ABSOLUTE SEGMENTED NEUTROPHIL” value [3] was 817.67 CELLS/uL. The BASOPHIL [3] was 0%, the EOSINOPHIL [3] was 1% and the “ERYTHROCYTE COUNT” value [3] was 5.49 x10E6/uL. For the same compound, the HEMATOCRIT [3] was 34.47%, the HEMOGLOBIN [3] was 13.47 G/DL and the “LEUKOCYTE COUNT” value [3] was 11.8 x10E3/uL. The LYMPHOCYTE [3] was 89%, the “MEAN CORPUSCULAR HEMOGLOBIN” value [3] was 24.57 pg and the “MEAN CORPUSCULAR HEMOGLOBIN CONCENTRATION” value [3] was 39.13 G/DL. For the same compound, the “MEAN CORPUSCULAR VOLUME” value [3] was 62.87 fL, the MONOCYTE [3] was 3% and the NEUTROPHIL [3] was 7%. For the same compound, the “NUCLEATED RED BLOOD CELLS” value [3] was 0 /100WBC, the “PLATELET COUNT” value [3] was 1083.33 x10E3/uL and the “ALANINE AMINOTRANSFERASE” value [3] was 50.33 u/L. The ALBUMIN [3] was 4.07 G/DL, the “ALKALINE PHOSPHATASE” value [3] was 403.67 u/L and the “ASPARTATE AMINOTRANSFERASE” value [3] was 84.67 u/L. For the same compound, the “BLOOD UREA NITROGEN” value [3] was 16.67 mg/dL, the “CARBON DIOXIDE” value [3] was 26 mmol/L and the CHLORIDE [3] was 103.67 MEQ/L. For the same compound, the CHOLESTEROL [3] was 73.33 mg/dL, the “CREATINE PHOSPHOKINASE” value [3] was 273.67 u/L and the CREATININE [3] was 0.15 mg/dL. The GLUCOSE [3] was 157.67 mg/dL, the “LACTATE DEHYDROGENASE” value [3] was 157.33 u/L and the LIPASE [3] was 9.33 u/L. It also gave a PHOSPHORUS [3] of 12.13 mg/dL, a POTASSIUM [3] of 6.6 MEQ/L and an SODIUM [3] of 146.1 MEQ/L. The “TOTAL BILIRUBIN” value [3] was 0.2 mg/dL, the “TOTAL PROTEIN” value [3] was 5.67 G/DL and the “URIC ACID” value [3] was 1.77 mg/dL.
